Test results: patent publication US12534444B2, “Treatment of cancer/inhibition of metastasis” (Celex Oncology Innovations Limited, priority 2010, dated 2026)
“Also recorded” adds a separate entry of the source.

How the values were obtained:
[1] = test system: Mat-LyLu cells; test: Invasion assay (Matrigel Transwell); assay type: cell-based, rat
Text: This assay is an extension of the transverse migration assay described above. To “invade”, the cells need both (i) to move as in the transverse migration assay and (ii) secrete a proteolytic enzyme to digest their surroundings. The ability of cells to invade neighbouring tissues by enzyme secretion was therefore assessed by using a layer of Matrigel™ (BD Biosciences) spread across the porous membrane of a Transwell® insert.
FIG. 7 is a schematic side sectional view of an invasion chamber 701 having a Transwell® insert 702 separating the chamber into upper 703 and lower 704 sections. The insert 702 has a migration filter membrane 705 in its base with 8 μm pores 706 extending therethrough. A layer 707 of Matrigel™ is shown coating the filter membrane 705.
Cells 708 were plated at a density of 2×10^4/ml onto the Matrigel™ layer 707 in 24-well plates (Becton-Dickinson) according to the manufacturers' instructions. 50 μl Matrigel™ was seeded at a 1:7 dilution (10 mg/ml stock) onto the inserts and left overnight. Prior to seeding with the cells the Matrigel™ was rehydrated using medium with no additions. This medium was removed prior to seeding the cells.
Cells were plated in a 1-5% FBS chemotactic gradient overnight (12 hours). The nutrient concentration in the medium 709 in the upper section 703 of the chamber was less than the concentration of nutrient in the medium 710 in the lower section 704 to induced movement of the cells through the Matrigel™ layer 707 and through the pores 706 to the underside of the filter membrane 705. At the end of each assay, non-invaded/non-migrated cells were removed from the upper surface of the insert 702 with two different swabs.
The number of cells invading to the underside of the insert 702 was determined using crystal violet staining. Invaded cells were fixed for 15 minutes with ice-cold methanol. Then 0.5% crystal violet (in 25% methanol) was added for 15 minutes. The inserts were swabbed again and then washed in water and allowed to dry. Cells were then counted using twelve separate fields of view per insert (×200 magnification). If the difference in the average number of cells invading the two control inserts was more than 40%, the experiment was rejected.
(§1) With the exception of single cell adhesion tests, which are discussed in the following paragraph, experiments were carried out under either; • (i) normal normoxic conditions ([…], 5% carbon dioxide), or • (ii) following 24 hours hypoxic pre-treatment (2% O2, 5% CO2, 93% N2) continued during the assays.

[2] = test system: Mat-LyLu cells; test: Cell viability assay (trypan blue); assay type: cell-based, rat
Description: Cells were seeded at a density of 5×10^4 cells/ml in 35 mm Falcon tissue culture dishes. After treatment with a given drug, the medium was removed and replaced with 800 μl of growth medium and 200 μl 0.4% trypan blue (Sigma, Dorset, UK) and incubated for 10 minutes in the incubator. The trypan blue was removed and the cells were washed once with 3 ml growth medium. For each treatment, cells from 30 random fields of view were counted under 100× magnification. The number of dead cells, stained blue, was counted in each field of view. The data were expressed as percentages of living cells out of the total number of cells in given fields of view. The percentages were averaged and differences between control and treatment were compared from at least three independent experiments.
as §1

[3] = test system: MDA-MB-231 cells; test: Lateral motility assay (wound-heal / scratch); assay type: cell-based, human
Description: This assay was used to represent the “free” motility of cancer cells during local spreading. FIG. 5(a) is a plan view from above of a cell culture dish 501 having a semi-confluent layer of cells 502 on its surface, the cells being in an aqueous medium 503.
In order to determine lateral motility, a “wound-heal (“scratch”)” test was carried out, in which a scratch 504 of ˜0.5 mm was made through the layer of cells, as shown in FIG. 5(b) which is a side sectional view of the cell culture dish.
During the period of 24 hours following the formation of the scratch, the cells moved into the gap.
FIGS. 5(c) and 5(d) are schematic plan views of the cell culture dish 501 at time t=zero when the width of the scratch 504 is w0 and time t=24 hours when the width of the scratch 504 is w24, respectively.
as §1

[4] = test system: Mat-LyLu cells; test: Cell growth (proliferation) assay (MTT); assay type: cell-based, rat
Description: Cells were plated at 2×10^4 cells/ml in 24-well plates (Becton-Dickinson) and allowed to settle overnight. The cells were then treated for the required time of incubation (24 hours+), with medium changes every 24 hours. At the end of the treatment, the medium was removed, and this was followed by the colorimetric 3-[4,5-dimethylthiazol-2-yl]-2,5-diphenyltetrazolium bromide (MTT) assay (Grimes et al., 1995). Briefly, 0.1 ml MTT (5 mg/ml made up in the growth medium) and 0.4 ml growth medium was added in each well and the plate was incubated for 3-4 hours at 37° C. The medium was then removed from the chambers and replaced with 0.5 ml dimethyl sulfoxide (DMSO) and 0.063 ml glycine buffer (0.1 M glycine and 0.1 M NaCl; pH 10.5). Absorbance at 570 nm was determined 15 minutes after the addition of the glycine buffer. Results were calculated as means of nine repeats of each of the treatment vs. control spectrophotometer readings from individual invasion wells.
as §1

[5] = Hypoxia, 20 μM, listed as RANOLAZINE
[6] = Hypoxia, 50 μM, listed as RANOLAZINE
[7] = Hypoxia, 300 μM, listed as RANOLAZINE
[8] = Normoxia, 20 μM, listed as RANOLAZINE
[9] = Normoxia, 50 μM, listed as RANOLAZINE
[10] = Normoxia, 300 μM, listed as RANOLAZINE

Nc1nc2ccc(OC(F)(F)F)cc2s1 [riluzole]
INVASIVENESS (no pretreatment) ([1]; Hypoxia, 1 μM, listed as RILUZOLE): decreased
INVASIVENESS (no pretreatment) ([1]; Hypoxia, 1 μM, listed as Riluzole): significantly inhibited invasiveness
INVASIVENESS (no pretreatment) ([1]; Hypoxia, 2.5 μM): decreased
INVASIVENESS (no pretreatment) ([1]; Hypoxia, 5 μM): decreased
INVASIVENESS (no pretreatment) ([1]; Normoxia, 1 μM, listed as RILUZOLE): decreased
INVASIVENESS (no pretreatment) ([1]; Normoxia, 1 μM, listed as Riluzole): significantly inhibited invasiveness
INVASIVENESS (no pretreatment) ([1]; Normoxia, 2.5 μM): decreased
INVASIVENESS (no pretreatment) ([1]; Normoxia, 5 μM): decreased
CELL VIABILITY ([2]; Hypoxia, 1 μM): no effect
CELL VIABILITY ([2]; Hypoxia, 10 μM, 24 h): no effect
CELL VIABILITY ([2]; Hypoxia, 10 μM, 24 h, listed as RILUZOLE): cell death
CELL VIABILITY ([2]; Hypoxia, 30 μM, 24 h): no effect
CELL VIABILITY ([2]; Hypoxia, 30 μM, 24 h, listed as RILUZOLE): cell death
CELL VIABILITY ([2]; Hypoxia, 100 μM, 24 h): no effect
CELL VIABILITY ([2]; Hypoxia, 100 μM, 24 h, listed as RILUZOLE): cell death
CELL VIABILITY ([2]; Normoxia, 10 μM, 24 h): no effect
CELL VIABILITY ([2]; Normoxia, 30 μM, 24 h): no effect
CELL VIABILITY ([2]; Normoxia, 100 μM, 24 h): no effect
lateral motility with increasing concentration ([3]; 1 μM, 10 μM and 100 μM, normoxia and hypoxia): reduced the lateral motility of the cells; the effect was greater under hypoxia
LATERAL MOTILITY ([3]; Hypoxia, 1 μM): decreased
LATERAL MOTILITY ([3]; Hypoxia, 10 μM): decreased
LATERAL MOTILITY ([3]; Hypoxia, 100 μM): decreased
LATERAL MOTILITY ([3]; Normoxia, 1 μM): no effect
LATERAL MOTILITY ([3]; Normoxia, 10 μM): decreased
LATERAL MOTILITY ([3]; Normoxia, 100 μM): decreased
cell proliferation with increasing concentration ([4]; 3 μM, 5 μM, 10 μM and 30 μM, 24 hours, normoxia and hypoxia (2% O2)): decreased cell proliferation dose dependently under both normoxia and hypoxia; the effect was greater under hypoxia
PROLIFERATION (24 hours) ([4]; Hypoxia, 3 μM): no effect
PROLIFERATION (24 hours) ([4]; Hypoxia, 5 μM): tail off
PROLIFERATION (24 hours) ([4]; Hypoxia, 10 μM): tail off
PROLIFERATION (24 hours) ([4]; Hypoxia, 30 μM): tail off
PROLIFERATION (24 hours) ([4]; Normoxia, 3 μM): no effect
PROLIFERATION (24 hours) ([4]; Normoxia, 5 μM): tail off
PROLIFERATION (24 hours) ([4]; Normoxia, 10 μM): tail off
PROLIFERATION (24 hours) ([4]; Normoxia, 30 μM): tail off

COc1ccccc1OCC(O)CN1CCN(CC(=O)Nc2c(C)cccc2C)CC1 (centres unmarked) [ranolazine]
INVASIVENESS (no pretreatment) ([1]; Hypoxia, 20 μM): reduced the migration of the cells in a statistically significant way
INVASIVENESS (no pretreatment) [1, 5]: decreased
INVASIVENESS (no pretreatment) ([1]; Hypoxia, 50 μM): reduced the migration of the cells in a statistically significant way
INVASIVENESS (no pretreatment) [1, 6]: decreased
INVASIVENESS (no pretreatment) ([1]; Hypoxia, 300 μM): reduced the migration of the cells in a statistically significant way
INVASIVENESS (no pretreatment) [1, 7]: decreased
INVASIVENESS (no pretreatment) ([1]; Normoxia, 20 μM): reduced the migration of the cells in a statistically significant way
INVASIVENESS (no pretreatment) [1, 8]: decreased
INVASIVENESS (no pretreatment) ([1]; Normoxia, 50 μM): reduced the migration of the cells in a statistically significant way
INVASIVENESS (no pretreatment) [1, 9]: decreased
INVASIVENESS (no pretreatment) ([1]; Normoxia, 300 μM): reduced the migration of the cells in a statistically significant way
INVASIVENESS (no pretreatment) [1, 10]: decreased
potency on invasiveness compared with positive control TTX ([1]; higher concentrations tested, TTX 1 μM): more potent than the toxin (TTX)
CELL VIABILITY ([2]; Hypoxia, 20 μM, 24 hours): no effect
CELL VIABILITY ([2]; Hypoxia, 50 μM, 24 hours): no effect
CELL VIABILITY ([2]; Hypoxia, 300 μM, 24 hours): no effect
CELL VIABILITY ([2]; Normoxia, 20 μM, 24 hours): no effect
CELL VIABILITY ([2]; Normoxia, 50 μM, 24 hours): no effect
CELL VIABILITY ([2]; Normoxia, 300 μM, 24 hours): no effect
LATERAL MOTILITY ([3]; Hypoxia, 1 μM): statistically significant reduction; also recorded: reduced the lateral motility
LATERAL MOTILITY ([3]; Hypoxia, 1 μM, listed as RANOLAZINE): decreased
LATERAL MOTILITY ([3]; Hypoxia, 10 μM): statistically significant reduction; also recorded: reduced the lateral motility
LATERAL MOTILITY ([3]; Hypoxia, 10 μM, listed as RANOLAZINE): decreased
LATERAL MOTILITY ([3]; Hypoxia, 100 μM): statistically significant reduction; also recorded: reduced the lateral motility
LATERAL MOTILITY ([3]; Hypoxia, 100 μM, listed as RANOLAZINE): decreased
LATERAL MOTILITY ([3]; Normoxia, 1 μM): reduced
LATERAL MOTILITY ([3]; Normoxia, 1 μM, listed as RANOLAZINE): decreased
LATERAL MOTILITY ([3]; Normoxia, 10 μM): reduced
LATERAL MOTILITY ([3]; Normoxia, 10 μM, listed as RANOLAZINE): decreased
LATERAL MOTILITY ([3]; Normoxia, 100 μM): reduction at a concentration of 100 μM ranolazine was statistically significant
LATERAL MOTILITY ([3]; Normoxia, 100 μM, listed as RANOLAZINE): decreased
PROLIFERATION (24 hours) ([4]; Hypoxia, 20 μM): did not result in any statistically significant effect
PROLIFERATION (24 hours) [4, 5]: no effect
PROLIFERATION (24 hours) ([4]; Hypoxia, 50 μM): did not result in any statistically significant effect
PROLIFERATION (24 hours) [4, 6]: no effect
PROLIFERATION (24 hours) ([4]; Hypoxia, 300 μM): reduction in the number of cells
PROLIFERATION (24 hours) [4, 7]: tail off
PROLIFERATION (24 hours) ([4]; Normoxia, 20 μM): did not result in any statistically significant effect
PROLIFERATION (24 hours) [4, 8]: no effect
PROLIFERATION (24 hours) ([4]; Normoxia, 50 μM): did not result in any statistically significant effect
PROLIFERATION (24 hours) [4, 9]: no effect
PROLIFERATION (24 hours) ([4]; Normoxia, 300 μM): did not result in any statistically significant effect
PROLIFERATION (24 hours) [4, 10]: tail off
